According to patent US11964938B2, “3-phenyl-4-hexynoic acid derivatives as GPR40 agonists” (CELON PHARMA S.A., priority 2018, dated 2024):
Structures can show the parent of a compound that is named as a salt.

Assays:
MRP4 = biological target: T1, MRP4 (Homo sapiens, UniProt O15439); experiment: Vesicular transport inhibition assay, MRP4; assay type: biochemical; settings: membrane vesicles from HEK293 cells
T1 construct: host or cells: HEK293 (membrane vesicles)
T1 sequence (O15439 1-1325): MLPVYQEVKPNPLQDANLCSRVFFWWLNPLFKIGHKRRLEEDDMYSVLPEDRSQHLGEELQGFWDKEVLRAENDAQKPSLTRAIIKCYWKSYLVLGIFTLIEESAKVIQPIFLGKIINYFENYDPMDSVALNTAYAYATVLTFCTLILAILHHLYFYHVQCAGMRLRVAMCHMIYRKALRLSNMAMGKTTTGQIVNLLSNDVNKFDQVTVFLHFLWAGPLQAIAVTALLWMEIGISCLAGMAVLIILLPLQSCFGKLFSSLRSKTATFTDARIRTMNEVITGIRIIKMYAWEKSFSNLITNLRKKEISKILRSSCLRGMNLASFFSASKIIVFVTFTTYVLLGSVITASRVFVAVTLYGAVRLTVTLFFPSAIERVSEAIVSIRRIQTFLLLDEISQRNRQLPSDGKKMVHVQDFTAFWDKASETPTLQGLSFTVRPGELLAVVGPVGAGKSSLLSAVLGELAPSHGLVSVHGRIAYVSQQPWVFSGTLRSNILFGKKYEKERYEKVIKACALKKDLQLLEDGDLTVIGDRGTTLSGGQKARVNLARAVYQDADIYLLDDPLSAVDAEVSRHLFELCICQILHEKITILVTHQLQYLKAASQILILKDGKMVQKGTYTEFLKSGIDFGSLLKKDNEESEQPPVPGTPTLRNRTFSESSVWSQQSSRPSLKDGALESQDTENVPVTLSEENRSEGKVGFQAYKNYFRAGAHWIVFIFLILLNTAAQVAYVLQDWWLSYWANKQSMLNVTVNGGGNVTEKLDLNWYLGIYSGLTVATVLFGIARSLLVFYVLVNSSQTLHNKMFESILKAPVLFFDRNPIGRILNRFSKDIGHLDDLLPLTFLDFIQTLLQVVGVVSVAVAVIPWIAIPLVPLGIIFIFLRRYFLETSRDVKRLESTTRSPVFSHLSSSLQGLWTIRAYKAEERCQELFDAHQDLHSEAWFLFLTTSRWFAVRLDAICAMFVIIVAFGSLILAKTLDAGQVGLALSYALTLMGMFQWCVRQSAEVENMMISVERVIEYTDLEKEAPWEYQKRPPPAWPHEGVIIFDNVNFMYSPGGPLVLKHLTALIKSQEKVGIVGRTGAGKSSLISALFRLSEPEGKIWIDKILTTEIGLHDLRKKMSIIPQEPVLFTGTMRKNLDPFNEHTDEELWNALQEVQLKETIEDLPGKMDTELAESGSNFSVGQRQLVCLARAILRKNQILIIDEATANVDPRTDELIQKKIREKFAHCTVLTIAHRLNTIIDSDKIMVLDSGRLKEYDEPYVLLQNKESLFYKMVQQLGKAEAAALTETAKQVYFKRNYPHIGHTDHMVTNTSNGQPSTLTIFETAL
Protocol: Experiment B4: Bile Acid Transporters Inhibition in the Liver. […] The compound was tested on a panel of 10 transporters: BSEP, MRP2, MRP3, MRP4 in a vesicular transport inhibition assay and NTCP, OAT1, OAT2v1, OATP1A2, OATP1B1, OATP1B3 in an uptake transporter inhibition assays. Vesicular transport inhibition assay was performed on membrane vesicles isolated from mammal HEK293 cells overexpressing human ABC transporters. Tested compound were incubated with vesicles and substrates for respective tested transporters. Incubation was performed in the presence of 4 mM ATP or AMP in order to differentiate between uptake by a transporter and passive diffusion into vesicles. In the case of MRP2 and MRP3, reactions were performed in the presence of 2 mM glutathione. Tested compounds were added to the reaction mixture dissolved in 0.75 μl of a solvent (1% of final incubation volume). Reaction mixtures were preincubated for 15 minutes at 37±1° C. Reactions were started by the addition of 25 μl of 12 mM MgATP (or 12 mM AMP) in test buffer, as a background control, separately preincubated.

OATP1A2 = biological target: T2, OATP1A2 (Homo sapiens, UniProt P46721); experiment: Uptake transporter inhibition assay, OATP1A2; assay type: cell-based; settings: HEK293 cells overexpressing transporter
T2 construct: host or cells: HEK293
T2 sequence (P46721 1-670): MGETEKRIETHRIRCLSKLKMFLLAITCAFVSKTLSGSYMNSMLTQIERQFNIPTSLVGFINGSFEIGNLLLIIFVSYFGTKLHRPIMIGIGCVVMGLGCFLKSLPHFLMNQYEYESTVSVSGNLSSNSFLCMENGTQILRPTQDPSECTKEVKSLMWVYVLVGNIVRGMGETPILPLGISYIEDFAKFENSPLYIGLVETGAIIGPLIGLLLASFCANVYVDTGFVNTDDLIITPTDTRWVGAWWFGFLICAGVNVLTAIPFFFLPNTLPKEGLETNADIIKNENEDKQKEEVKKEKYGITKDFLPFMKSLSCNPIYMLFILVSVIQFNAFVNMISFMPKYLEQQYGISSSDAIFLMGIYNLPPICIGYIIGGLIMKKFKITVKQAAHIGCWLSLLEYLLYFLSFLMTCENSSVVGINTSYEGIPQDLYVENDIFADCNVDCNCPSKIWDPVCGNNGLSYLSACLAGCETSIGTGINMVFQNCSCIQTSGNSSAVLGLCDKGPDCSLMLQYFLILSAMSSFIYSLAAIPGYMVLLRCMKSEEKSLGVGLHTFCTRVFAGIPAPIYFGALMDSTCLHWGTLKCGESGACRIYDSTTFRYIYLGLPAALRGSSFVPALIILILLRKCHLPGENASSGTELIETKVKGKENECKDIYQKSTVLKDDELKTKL
Protocol: Experiment B4: Bile Acid Transporters Inhibition in the Liver.
The compound was tested on a panel of 10 transporters: BSEP, MRP2, MRP3, MRP4 in a vesicular transport inhibition assay and NTCP, OAT1, OAT2v1, OATP1A2, OATP1B1, OATP1B3 in an uptake transporter inhibition assays.
Transporter uptake inhibition test was performed on mammal HEK293 cells overexpressing of a respective transporter. Cells were cultured at 37±1° C. and seeded on 96-well tissue culture plate at 1×10^5/well. Substrate was removed prior to experiment and cells were washed twice with 100 μl of respective buffer (HK pH 7.4 for OATP1B1 and HBSS pH 7.4 for NTCP, OAT1, OAT2v1, OATP1A2, and OATP1B3). Uptake studies were performed at 37±1° C. in 50 μl of respective buffer containing radioactively tagged substrate and tested compound or solvent.
After experiment cells were washed twice with 100 μl of ice-cold respective buffer and lysed with 50 μl of 0.1M NaOH. Transport of radioactively tagged substrate was determined by scintillation counter measurement.

SMILES	IC50 (MRP4) [µM]	IC50 (OATP1A2) [µM]
Cc1cc(OCCCS(C)(=O)=O)cc(C)c1-c1cccc(COc2ccc3c(c2)OC[C@H]3CC(=O)O)c1 [Example R1, 2[(3S)-6-({3-[4-(3-methanesulfonylpropoxy)-2,6-dimethylphenyl]-phenyl}methoxy)-2,3-dihydro-1-benzofuran-3-yl]acetic acid, reference compound]	6.9	10.6
CC#C[C@@H](CC(=O)O)c1ccc(OCC(C)=C(C)C)cc1 [Example S1, (3S)-3-{4-[(2,3-dimethylbut-2-en-1-yl)oxy]phenyl}hex-4-ynoic acid calcium salt]	131	118
